Values belong to the compound of their own block, whether it stands above or below them.
What was measured:
[1] = target: T1, NUAK family SNF1-like kinase 1 (Homo sapiens) (UniProt O60285); experiment: Selectivity interaction (KinomeScan (DiscoverX)) EUB0001049a NUAK1; settings: at 1 µM
T1 sequence (whole entry): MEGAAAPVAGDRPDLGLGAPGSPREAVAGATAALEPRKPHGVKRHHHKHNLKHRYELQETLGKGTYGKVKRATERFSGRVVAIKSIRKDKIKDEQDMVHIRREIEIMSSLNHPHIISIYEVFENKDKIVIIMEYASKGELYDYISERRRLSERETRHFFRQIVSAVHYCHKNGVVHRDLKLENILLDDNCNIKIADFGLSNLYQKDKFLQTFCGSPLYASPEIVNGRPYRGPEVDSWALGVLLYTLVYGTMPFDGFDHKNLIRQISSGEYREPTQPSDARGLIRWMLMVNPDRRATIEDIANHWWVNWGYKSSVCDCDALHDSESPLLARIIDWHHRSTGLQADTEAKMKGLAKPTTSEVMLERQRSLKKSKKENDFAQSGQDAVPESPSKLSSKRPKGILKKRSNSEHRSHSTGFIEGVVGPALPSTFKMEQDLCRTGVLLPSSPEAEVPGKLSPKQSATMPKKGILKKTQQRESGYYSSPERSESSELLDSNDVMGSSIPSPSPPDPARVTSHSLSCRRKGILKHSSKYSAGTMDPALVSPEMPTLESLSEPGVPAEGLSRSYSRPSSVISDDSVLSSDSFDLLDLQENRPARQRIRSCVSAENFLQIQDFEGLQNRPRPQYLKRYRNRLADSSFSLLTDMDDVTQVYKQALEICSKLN

[2] = target: T2, Aurora kinase A (Homo sapiens) (UniProt O14965); experiment: Selectivity interaction (ActivX KiNativ screen (kinase selectivity in THP-1 cell lysates)) EUB0000639a STK6; assay type: subcellular; settings: lysate, at 5 µM
T2 sequence (whole entry): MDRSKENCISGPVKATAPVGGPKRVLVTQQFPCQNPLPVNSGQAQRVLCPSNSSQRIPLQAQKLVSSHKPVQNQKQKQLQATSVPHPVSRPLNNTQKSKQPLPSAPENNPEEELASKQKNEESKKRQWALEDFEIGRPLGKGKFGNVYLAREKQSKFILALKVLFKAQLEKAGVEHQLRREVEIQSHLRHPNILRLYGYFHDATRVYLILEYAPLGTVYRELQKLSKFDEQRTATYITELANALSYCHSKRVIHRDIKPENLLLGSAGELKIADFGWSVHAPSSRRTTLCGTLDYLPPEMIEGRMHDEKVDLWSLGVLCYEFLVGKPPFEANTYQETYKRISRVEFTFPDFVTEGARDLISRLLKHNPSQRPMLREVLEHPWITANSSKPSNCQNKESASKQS

[3] = target: T3, Dual specificity mitogen-activated protein kinase kinase 4 (Homo sapiens) (UniProt P45985); experiment: Selectivity interaction (LanthaScreen Eu Kinase Binding Assay) EUB0001632a MAP2K4; settings: at 10 µM
T3 sequence (whole entry): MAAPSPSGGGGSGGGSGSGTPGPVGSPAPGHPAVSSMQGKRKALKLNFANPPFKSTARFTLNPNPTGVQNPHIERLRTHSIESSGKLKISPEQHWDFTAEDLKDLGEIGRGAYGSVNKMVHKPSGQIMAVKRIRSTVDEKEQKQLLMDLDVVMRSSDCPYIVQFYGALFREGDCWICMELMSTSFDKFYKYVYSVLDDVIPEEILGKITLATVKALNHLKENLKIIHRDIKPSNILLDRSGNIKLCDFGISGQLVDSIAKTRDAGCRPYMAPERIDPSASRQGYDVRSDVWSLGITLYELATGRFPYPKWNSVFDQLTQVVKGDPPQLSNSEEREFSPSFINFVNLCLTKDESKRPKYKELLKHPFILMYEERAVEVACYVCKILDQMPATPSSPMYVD

[4] = target: RAC-alpha serine/threonine-protein kinase (Homo sapiens, UniProt P31749); experiment: Selectivity interaction (KinomeScan (DiscoverX)) EUB0001079a AKT1; settings: at 1 µM
RAC-alpha serine/threonine-protein kinase, sequence (P31749 whole entry): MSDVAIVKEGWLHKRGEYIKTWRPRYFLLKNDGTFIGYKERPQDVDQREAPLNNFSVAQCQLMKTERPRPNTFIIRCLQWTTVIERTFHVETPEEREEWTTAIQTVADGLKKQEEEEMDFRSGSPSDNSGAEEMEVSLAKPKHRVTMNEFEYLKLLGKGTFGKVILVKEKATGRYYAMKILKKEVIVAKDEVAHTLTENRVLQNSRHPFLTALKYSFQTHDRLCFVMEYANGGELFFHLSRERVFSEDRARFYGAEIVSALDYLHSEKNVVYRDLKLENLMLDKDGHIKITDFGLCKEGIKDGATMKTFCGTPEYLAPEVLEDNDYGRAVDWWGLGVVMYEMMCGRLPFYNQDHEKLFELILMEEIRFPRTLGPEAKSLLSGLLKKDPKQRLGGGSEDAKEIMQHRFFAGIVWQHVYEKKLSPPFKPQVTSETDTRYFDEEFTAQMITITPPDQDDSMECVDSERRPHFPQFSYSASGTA

[5] = target: Platelet-derived growth factor receptor beta (Homo sapiens, UniProt P09619); experiment: Selectivity interaction (ProQinase) EUB0000171b PDGFRB
Platelet-derived growth factor receptor beta, sequence (P09619 whole entry, the tested form may be a part): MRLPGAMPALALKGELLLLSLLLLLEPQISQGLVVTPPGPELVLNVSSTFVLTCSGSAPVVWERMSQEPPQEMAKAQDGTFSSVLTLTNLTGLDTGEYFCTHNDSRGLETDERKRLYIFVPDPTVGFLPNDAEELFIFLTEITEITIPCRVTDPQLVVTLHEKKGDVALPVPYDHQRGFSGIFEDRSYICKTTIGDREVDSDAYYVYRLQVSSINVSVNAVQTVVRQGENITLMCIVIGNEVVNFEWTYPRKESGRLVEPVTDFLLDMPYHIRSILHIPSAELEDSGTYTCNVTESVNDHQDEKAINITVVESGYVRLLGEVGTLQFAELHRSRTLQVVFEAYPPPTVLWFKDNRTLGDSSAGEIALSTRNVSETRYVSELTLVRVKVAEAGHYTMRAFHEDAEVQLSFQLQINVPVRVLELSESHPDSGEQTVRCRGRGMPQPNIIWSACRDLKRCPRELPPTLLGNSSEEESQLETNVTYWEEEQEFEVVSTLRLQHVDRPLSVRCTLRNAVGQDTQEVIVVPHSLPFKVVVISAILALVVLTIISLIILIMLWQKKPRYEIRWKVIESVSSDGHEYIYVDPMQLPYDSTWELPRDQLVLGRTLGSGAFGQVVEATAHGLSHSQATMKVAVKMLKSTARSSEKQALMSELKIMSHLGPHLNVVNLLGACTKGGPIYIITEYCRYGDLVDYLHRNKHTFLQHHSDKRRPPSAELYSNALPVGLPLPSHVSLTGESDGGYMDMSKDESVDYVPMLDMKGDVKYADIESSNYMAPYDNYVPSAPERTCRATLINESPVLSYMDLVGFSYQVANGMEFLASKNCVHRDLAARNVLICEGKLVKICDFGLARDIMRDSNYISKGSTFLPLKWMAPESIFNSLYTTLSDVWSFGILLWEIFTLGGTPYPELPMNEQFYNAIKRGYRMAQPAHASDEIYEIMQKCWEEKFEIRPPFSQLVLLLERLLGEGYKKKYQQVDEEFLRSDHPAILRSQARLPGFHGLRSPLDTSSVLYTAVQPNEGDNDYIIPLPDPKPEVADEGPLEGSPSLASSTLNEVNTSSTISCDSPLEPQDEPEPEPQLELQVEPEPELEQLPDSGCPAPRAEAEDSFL

[6] = target: LIM domain kinase 1 (Homo sapiens) (UniProt P53667); experiment: Selectivity interaction (Upstate Kinase Profiler service (Millipore)) EUB0000056c LIMK1; settings: at 1 µM
LIM domain kinase 1 (Homo sapiens), sequence (P53667 whole entry, looked up, the tested form may be a part): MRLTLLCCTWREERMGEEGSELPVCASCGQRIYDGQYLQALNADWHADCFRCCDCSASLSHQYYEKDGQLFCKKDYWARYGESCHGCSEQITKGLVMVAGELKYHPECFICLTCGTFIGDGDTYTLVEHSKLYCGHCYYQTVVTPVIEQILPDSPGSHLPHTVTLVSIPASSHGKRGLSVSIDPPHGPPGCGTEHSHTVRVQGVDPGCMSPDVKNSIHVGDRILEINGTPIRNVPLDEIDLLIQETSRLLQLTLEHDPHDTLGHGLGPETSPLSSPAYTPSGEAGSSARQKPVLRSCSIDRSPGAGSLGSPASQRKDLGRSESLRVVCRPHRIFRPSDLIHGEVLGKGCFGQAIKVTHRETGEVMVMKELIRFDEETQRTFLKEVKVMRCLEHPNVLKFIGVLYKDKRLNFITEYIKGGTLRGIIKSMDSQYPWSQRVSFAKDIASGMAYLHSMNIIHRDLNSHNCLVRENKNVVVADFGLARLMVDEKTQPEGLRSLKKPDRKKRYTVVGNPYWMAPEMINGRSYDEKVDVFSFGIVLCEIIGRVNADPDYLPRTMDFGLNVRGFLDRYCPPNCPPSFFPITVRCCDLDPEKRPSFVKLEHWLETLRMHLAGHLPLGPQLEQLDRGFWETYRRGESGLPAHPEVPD

[7] = target: T4, Ephrin type-B receptor 4 (Homo sapiens) (UniProt P54760); experiment: Selectivity interaction (KinomeScan (DiscoverX)) EUB0001619a EPHB4; settings: at 1 µM
T4 sequence (whole entry): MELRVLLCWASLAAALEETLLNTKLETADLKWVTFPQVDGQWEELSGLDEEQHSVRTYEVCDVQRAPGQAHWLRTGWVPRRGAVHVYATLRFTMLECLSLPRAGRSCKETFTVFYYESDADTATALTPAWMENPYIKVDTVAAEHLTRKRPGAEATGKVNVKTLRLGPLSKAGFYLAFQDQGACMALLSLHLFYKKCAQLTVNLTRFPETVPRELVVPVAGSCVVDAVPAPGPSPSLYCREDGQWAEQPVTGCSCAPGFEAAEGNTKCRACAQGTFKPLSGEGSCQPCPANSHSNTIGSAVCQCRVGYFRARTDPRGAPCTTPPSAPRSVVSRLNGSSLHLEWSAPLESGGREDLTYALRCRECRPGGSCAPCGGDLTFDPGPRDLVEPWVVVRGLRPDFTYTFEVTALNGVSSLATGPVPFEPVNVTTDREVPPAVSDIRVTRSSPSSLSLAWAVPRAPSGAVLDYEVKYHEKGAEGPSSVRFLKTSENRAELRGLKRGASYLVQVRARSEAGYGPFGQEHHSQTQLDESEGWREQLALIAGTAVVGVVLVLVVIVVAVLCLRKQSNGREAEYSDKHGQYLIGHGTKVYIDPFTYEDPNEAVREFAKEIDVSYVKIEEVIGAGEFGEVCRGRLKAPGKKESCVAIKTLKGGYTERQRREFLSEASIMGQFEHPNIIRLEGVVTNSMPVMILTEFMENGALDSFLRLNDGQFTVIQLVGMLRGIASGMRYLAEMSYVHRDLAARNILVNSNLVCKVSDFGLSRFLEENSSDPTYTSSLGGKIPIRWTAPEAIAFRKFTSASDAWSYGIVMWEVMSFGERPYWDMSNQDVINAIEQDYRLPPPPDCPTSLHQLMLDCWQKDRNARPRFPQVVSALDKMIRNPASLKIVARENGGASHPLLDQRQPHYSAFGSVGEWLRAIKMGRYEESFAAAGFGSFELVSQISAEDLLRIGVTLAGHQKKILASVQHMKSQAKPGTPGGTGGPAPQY

[8] = target: T3, Dual specificity mitogen-activated protein kinase kinase 4 (Homo sapiens); experiment: Selectivity interaction (Kinase panel (DSF assay)) EUB0001559a MAP2K4
[9] = target: Ribosomal protein S6 kinase beta-1 (Homo sapiens, UniProt P23443); experiment: Selectivity interaction (SelectScreen profiling (Invitrogen)) EUB0000607a RPS6KB1; settings: at 2 µM
Ribosomal protein S6 kinase beta-1, sequence (P23443 whole entry, looked up): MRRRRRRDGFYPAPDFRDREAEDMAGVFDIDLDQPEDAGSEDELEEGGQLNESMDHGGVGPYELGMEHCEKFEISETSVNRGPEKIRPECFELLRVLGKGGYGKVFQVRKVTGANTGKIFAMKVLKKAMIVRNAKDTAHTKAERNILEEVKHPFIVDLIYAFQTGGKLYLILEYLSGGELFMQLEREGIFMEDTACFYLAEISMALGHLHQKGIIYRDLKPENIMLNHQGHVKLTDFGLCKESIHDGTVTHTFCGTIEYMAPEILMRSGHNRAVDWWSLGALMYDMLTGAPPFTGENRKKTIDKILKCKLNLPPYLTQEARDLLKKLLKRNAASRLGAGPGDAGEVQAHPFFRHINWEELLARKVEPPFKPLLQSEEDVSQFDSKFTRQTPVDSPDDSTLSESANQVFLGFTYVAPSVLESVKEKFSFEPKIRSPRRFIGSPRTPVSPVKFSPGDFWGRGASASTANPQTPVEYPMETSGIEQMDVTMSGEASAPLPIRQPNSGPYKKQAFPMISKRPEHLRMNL

SMILES: COc1cc(Nc2nc(C)cc(-c3cnn4nc(OC)ccc34)n2)cc(C(F)(F)F)c1
- % of control [1]: 100%

SMILES: Nc1cnc(N2CCc3cc(S(=O)(=O)Nc4c(F)cc(Cl)cc4F)cc(N4CCCC4=O)c32)nc1 [TP-020n]
- % of control [4]: 100%

SMILES: N#Cc1cccc(-c2c[nH]c3ncnc(N4CCOCC4)c23)c1
- % of control [7]: 100%

SMILES: CNC(=O)Nc1ccc(-c2nc(N3CC4CCC(C3)O4)c3cnn(C4CCC5(CC4)OCCO5)c3n2)cc1
- % of inhibition [9]: 2%

Now from value to compound:

- % of inhibition [2]: 57.8%
SMILES: CC[C@@H]1[C@H](F)C(=O)N[C@@H]1COc1nccc2cc(C(N)=O)c(OC)cc12 [ZIMLOVISERTIB]

- % of inhibition [3]: -62.3%
SMILES: Cn1cc(-n2cnc3c(NCc4nc5cc(Cl)c(Cl)cc5[nH]4)nc(N4CCOCC4)nc32)cn1

- % of control ([5]; at 1 µM): 74%
- % of control ([5]; at 5 µM): 46%
SMILES: C=CC(=O)Nc1cccc(C(=O)Nc2ccc(Nc3cc(-c4[nH]c(SC)nc4C)ccn3)cc2)c1

- % of inhibition [6]: 4%
SMILES: Cc1ccc(-c2ccc3c(ccc4sc5c(c43)NC[C@@H](C)NC5=O)n2)cn1

- dTM [8]: 0.2 K
SMILES: CN(C(=O)c1cnn2cccnc12)c1cc2c(cc1N1CCOCC1)C(=O)N(C[C@@H](F)C(C)(C)O)C2
